Test results from patent publication US11590103B2, “Ascorbate in the prevention of statin induced vascular calcification” (priority 2019, dated 2023).

Columns and labels:
Assay type in all cases: cell-based
[1] = test system: human aortic smooth muscle cells (AoSMC); test: Calcium accumulation in extracellular matrix of cultured AoSMC
Method: (§1) Cell viability was monitored with MTT assay.
AoSMC were seeded on fibronectin covered plastic plates at density 25,000 per square cm and grown to confluence for 5-7 days. […] J Cardiovasc Pharmacol 2008; 52:55-65. After four washes with PBS, ECM layers were solubilized by incubation in 0.6N HCl for 48 hours at 37° C. Calcium content in solubilized samples was measured with TECO Ca assay according to manufacturer's protocol.

[2] = test system: human aortic smooth muscle cells (AoSMC); test: Alkaline phosphatase activity assay in AoSMC; details: 300 mcM ascorbate, regular growth medium, FIG. 1
Method: AoSMC were plated in 96 well plates and grown to confluent layer. Cells were incubated with ascorbic acid in growth medium for three days. Cells were washed with phosphate buffered saline (PBS) and supplemented with 50 mcl/well 25 mcg/ml 4-MUP (fluorescent ALP substrate, Sigma) in alkaline buffer (Sigma)/1% Triton X100 for 1 h at room temperature. Fluorescence was measured at 360/450 nm.

[3] = test system: human aortic smooth muscle cells (AoSMC); test: Expression of osteoblast markers in AoSMC (immunoassay); details: 100 mcM ascorbic acid, medium with 5 mM beta-glycerophosphate and 25 mcM forskolin, FIG. 3
Method: as §1
(§2) For the experiments AoSMC, DF and hFOB cells were seeded in separate 96 well plastic plates at density 25,000 per square cm and grown to confluence for 5-7 days. Tested compounds were added to cells at indicated concentrations for 72 hours in DMEM supplemented with 2% FBS. Cell layers were washed three times with PBS and fixed with 3% formaldehyde in PBS at 4° C. for one hour. Fixed cell layers were washed four times with PBS and treated with 1% BSA/PBS for one hour at RT. Immunoassay for osteogenic markers was done by sequential incubation with primary monoclonal antibodies (R&D Systems) in 1% BSA/PBS for 2 hours followed by 1 hour incubation with secondary goat anti-mouse IgG antibodies labeled with horse radish peroxidase (HRP). Retained peroxidase activity was measured after the last washing cycle (three times with 0.1% BSA/PBS) using TMB peroxidase substrate reagent (Rockland). Optical density was read with plate reader (Molecular Devices) at 450 nm and expressed as percentage of control cell samples incubated in unsupplemented 2% FBS/DMEM. To ensure a direct comparison of osteogenic markers expression on different cell types all pcell covered plates were treated identical and simultaneously during immunoassay.

[4] = test system: human dermal fibroblasts (DF); test: Expression of osteoblast markers in dermal fibroblasts (immunoassay); details: 100 mcM ascorbic acid, medium with 5 mM beta-glycerophosphate and 25 mcM forskolin, FIG. 3
Method: as §1, §2

[5] = 100 mcM ascorbate concomitant with simvastatin, without forskolin, FIG. 2A

O=C1O[C@H]([C@@H](O)CO)C(O)=C1O [ascorbic acid, L-ascorbic acid]
decrease of calcium accumulation ([1]; 100 mcM ascorbate added to 1 mM mevastatin, with 25 mcM forskolin, FIG. 2B): 19% | accumulated calcium [1, 5]: 0.2 mcg/well | decrease of accumulated calcium [1, 5]: 54% | decrease of extracellular Ca accumulation by AoSMC ([1]; 300 mcM ascorbate, regular growth medium, FIG. 1): 20% | decrease of cellular alkaline phosphatase activity [2]: 80% | expression of all tested osteogenic markers [3]: significantly reduced | expression of all tested osteogenic markers [4]: significantly reduced

CCC(C)(C)C(=O)O[C@H]1C[C@@H](C)C=C2C=C[C@H](C)[C@H](CC[C@@H]3C[C@@H](O)CC(=O)O3)[C@H]21 [simvastatin]
increase of calcium accumulation in AoSMC layers ([1]; in the presence of simvastatin, without forskolin, FIG. 2A): 23%

CC[C@H](C)C(=O)O[C@H]1CCC=C2C=C[C@H](C)[C@H](CC[C@@H]3C[C@@H](O)CC(=O)O3)[C@H]21 [mevastatin]
calcium accumulation ([1]; 1 mM mevastatin, with 25 mcM forskolin, FIG. 2B, control 1.35 mcg/well): 1.8 mcg/well
